Reference: ChEMBL document CHEMBL3639024, “Azinone-substituted azapolycycle MCH-1 antagonists, methods of making, and use thereof” (2013)

Target: Melanin-concentrating hormone receptor 1 (Homo sapiens, UniProt Q99705)
Assay: Binding Assay: Evaluation of the affinity of compounds for the human MCH-1 receptor was accomplished using 4-(3,4,5-tritritiumbenzyloxy)-1-(1-(2-(pyrrolidin-1-yl)ethyl)-1H-indazol-5-yl)pyridin-2(1H)-one and membranes prepared from stable CHO-K1 cells expressing the human MCH1 receptor obtained from Euroscreen (Batch 1138).
Assay type: cell membranes

Sequence of Melanin-concentrating hormone receptor 1 (Q99705 whole entry): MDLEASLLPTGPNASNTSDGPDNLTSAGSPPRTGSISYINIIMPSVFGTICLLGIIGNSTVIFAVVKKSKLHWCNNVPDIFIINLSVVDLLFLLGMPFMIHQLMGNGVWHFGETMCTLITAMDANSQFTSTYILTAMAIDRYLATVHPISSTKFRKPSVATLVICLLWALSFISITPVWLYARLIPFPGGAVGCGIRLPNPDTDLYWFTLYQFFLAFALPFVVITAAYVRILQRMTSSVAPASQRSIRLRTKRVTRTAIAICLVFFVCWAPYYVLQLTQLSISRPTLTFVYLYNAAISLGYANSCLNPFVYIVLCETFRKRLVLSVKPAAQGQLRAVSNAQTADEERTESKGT

SMILES: Cn1c2c(c3ccc(-n4ccc(OCc5ccc(F)cn5)cc4=O)cc31)CN1CCCC1C2 (stereo unspecified)
- Ki: 9.7 nM
